Our source for the activity and Ki values is ChEMBL document CHEMBL2073782, “Comparative inhibitory effects of different compounds on rat oatpl (slc21a1)- and Oatp2 (Slc21a5)-mediated transport” (Pharm Res, 2002).

pKi: −log10 of the molar value.

Holding throughout (type): functional, cell-based
The target of data set [1] is T1, Oatp2 (Solute carrier organic anion transporter family member 1A4) (Rattus norvegicus, UniProt O35913).
T1 sequence (O35913 whole entry): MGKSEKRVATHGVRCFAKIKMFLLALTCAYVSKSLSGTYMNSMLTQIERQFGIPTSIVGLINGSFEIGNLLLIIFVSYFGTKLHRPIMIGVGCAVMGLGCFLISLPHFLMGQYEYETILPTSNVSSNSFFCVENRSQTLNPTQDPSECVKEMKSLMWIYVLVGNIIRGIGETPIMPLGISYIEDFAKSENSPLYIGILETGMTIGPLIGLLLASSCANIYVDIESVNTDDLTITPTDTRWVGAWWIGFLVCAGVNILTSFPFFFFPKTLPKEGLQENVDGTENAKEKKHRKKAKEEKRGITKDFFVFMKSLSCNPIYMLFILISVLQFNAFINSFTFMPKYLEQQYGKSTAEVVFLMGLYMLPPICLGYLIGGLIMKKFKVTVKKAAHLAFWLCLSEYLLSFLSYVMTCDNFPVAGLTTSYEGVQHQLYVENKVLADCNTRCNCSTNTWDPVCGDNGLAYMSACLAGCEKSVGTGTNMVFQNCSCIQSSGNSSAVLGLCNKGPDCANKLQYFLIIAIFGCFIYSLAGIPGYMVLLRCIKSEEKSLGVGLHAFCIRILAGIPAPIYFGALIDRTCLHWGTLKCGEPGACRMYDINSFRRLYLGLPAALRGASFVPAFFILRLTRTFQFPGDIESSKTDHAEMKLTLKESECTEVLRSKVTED
Briefly: TP_TRANSPORTER: inhibition of Digoxin uptake (Digoxin: 0.05 uM, Verapamil: 1000 uM) in Oatp2-expressing LLC-PK1 cells. On the set-up: scale not given: the % may be the effect or the level left. The note with it: pig, probe Digoxin, read-out: Activity.

The target in data set [2] is T2, Oatp1 (Solute carrier organic anion transporter family member 1A1) (Rattus norvegicus, UniProt P46720).
T2 sequence (P46720 whole entry): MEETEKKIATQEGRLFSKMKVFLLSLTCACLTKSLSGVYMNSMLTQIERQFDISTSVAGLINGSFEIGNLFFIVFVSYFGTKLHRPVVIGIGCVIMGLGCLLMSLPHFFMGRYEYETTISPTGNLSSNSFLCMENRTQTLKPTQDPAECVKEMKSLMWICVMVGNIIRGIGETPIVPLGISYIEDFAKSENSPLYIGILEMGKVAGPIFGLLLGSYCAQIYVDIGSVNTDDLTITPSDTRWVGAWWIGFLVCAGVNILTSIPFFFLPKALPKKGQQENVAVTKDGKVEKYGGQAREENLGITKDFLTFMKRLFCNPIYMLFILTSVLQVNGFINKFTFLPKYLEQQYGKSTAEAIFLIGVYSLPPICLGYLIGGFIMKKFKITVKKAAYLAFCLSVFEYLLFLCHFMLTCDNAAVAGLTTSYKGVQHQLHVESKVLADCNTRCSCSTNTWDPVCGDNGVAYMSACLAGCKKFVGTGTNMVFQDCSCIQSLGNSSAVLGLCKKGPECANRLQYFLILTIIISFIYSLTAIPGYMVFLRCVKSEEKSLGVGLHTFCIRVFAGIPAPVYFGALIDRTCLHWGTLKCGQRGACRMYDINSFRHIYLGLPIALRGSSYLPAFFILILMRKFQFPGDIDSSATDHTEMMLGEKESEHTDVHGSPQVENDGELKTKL
Nature of the data set: TP_TRANSPORTER: inhibition of E217betaG uptake (E217betaG: 0.1 uM, Verapamil: 1000 uM) in Oatp1-expressing LLC-PK1 cells. The arrangement: scale not given: the % may be the effect or the level left. The settings on record: pig, probe E217betaG, read-out: Activity.

Data set [3] has as its target T1, Oatp2 (Solute carrier organic anion transporter family member 1A4). Briefly: TP_TRANSPORTER: inhibition of Digoxin uptake (Digoxin: 0.05 uM, Corticosterone: 100 uM) in Oatp2-expressing LLC-PK1 cells. The arrangement: scale not given: the % may be the effect or the level left. The settings on record: pig, probe Digoxin, read-out: Activity.
Data set [4] has the same target. Briefly: TP_TRANSPORTER: inhibition of Digoxin uptake (Digoxin: 0.05 uM, Deoxycorticosterone: 100 uM) in Oatp2-expressing LLC-PK1 cells. The arrangement: scale not given: the % may be the effect or the level left. The settings on record: pig, probe Digoxin, read-out: Activity.
In data set [5] the target is T2, Oatp1 (Solute carrier organic anion transporter family member 1A1). Nature of the data set: TP_TRANSPORTER: inhibition of E217betaG uptake (E217betaG: 0.1 uM, Deoxycorticosterone: 100 uM) in Oatp1-expressing LLC-PK1 cells. The arrangement: scale not given: the % may be the effect or the level left. The settings on record: pig, probe E217betaG, read-out: Activity.

In data set [6] the target is T1, Oatp2 (Solute carrier organic anion transporter family member 1A4). Nature of the data set: TP_TRANSPORTER: inhibition of Digoxin uptake (Digoxin: 0.05 uM, Glibenclamide: 1000 uM) in Oatp2-expressing LLC-PK1 cells. The settings on record: pig, probe Digoxin, read-out: Activity. The arrangement: scale not given: the % may be the effect or the level left.
For data set [7], the target named is T2, Oatp1 (Solute carrier organic anion transporter family member 1A1). Briefly: TP_TRANSPORTER: inhibition of E217betaG uptake (E217betaG: 0.1 uM, Glibenclamide: 1000 uM) in Oatp1-expressing LLC-PK1 cells. The settings on record: pig, probe E217betaG, read-out: Activity. On the set-up: scale not given: the % may be the effect or the level left.
Data set [8] concerns the target T3, Solute carrier organic anion transporter family member 1A1 (Rattus norvegicus, UniProt P46720).
T3 sequence (P46720 whole entry): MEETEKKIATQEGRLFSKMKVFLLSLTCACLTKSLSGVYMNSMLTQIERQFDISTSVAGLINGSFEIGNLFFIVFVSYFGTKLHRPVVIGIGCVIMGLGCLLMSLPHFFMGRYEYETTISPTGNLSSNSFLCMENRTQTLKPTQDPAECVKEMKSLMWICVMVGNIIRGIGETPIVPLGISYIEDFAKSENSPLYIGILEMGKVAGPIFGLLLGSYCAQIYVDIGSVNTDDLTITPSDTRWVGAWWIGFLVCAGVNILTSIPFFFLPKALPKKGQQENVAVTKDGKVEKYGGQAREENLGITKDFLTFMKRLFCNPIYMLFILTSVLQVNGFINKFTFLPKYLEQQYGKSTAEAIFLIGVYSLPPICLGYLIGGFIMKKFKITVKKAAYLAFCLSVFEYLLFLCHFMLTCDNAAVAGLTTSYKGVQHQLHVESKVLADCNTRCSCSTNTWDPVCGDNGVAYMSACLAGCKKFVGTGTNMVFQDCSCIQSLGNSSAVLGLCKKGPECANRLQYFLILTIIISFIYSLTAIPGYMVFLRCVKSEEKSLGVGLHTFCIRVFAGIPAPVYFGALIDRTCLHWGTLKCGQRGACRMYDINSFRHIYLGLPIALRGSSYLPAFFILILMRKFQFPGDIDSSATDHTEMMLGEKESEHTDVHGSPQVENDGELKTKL
Briefly: TP_TRANSPORTER: inhibition of E217betaG uptake in Oatp1-expressing LLC-PK1 cells.

In data set [9] the target is T4, Solute carrier organic anion transporter family member 1A4 (Rattus norvegicus, UniProt O35913).
T4 sequence (O35913 whole entry): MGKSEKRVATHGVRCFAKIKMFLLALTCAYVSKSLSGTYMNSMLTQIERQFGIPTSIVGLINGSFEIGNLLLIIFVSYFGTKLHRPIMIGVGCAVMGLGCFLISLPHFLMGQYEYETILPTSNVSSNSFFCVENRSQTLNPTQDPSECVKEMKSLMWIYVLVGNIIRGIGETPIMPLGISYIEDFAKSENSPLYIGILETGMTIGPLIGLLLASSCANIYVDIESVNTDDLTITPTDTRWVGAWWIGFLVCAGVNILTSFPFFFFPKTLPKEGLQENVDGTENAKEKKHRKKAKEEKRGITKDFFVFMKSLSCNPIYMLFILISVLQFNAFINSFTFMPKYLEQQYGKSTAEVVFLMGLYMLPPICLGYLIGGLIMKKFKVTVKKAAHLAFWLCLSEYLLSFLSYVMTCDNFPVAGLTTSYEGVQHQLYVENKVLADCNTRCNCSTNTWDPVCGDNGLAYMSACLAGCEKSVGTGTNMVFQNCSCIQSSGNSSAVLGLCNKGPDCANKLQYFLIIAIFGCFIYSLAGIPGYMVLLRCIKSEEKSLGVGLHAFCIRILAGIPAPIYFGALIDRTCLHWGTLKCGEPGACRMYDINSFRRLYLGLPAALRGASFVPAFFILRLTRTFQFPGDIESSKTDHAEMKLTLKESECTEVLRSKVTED
Nature of the data set: TP_TRANSPORTER: inhibition of Digoxin uptake in Oatp2-expressing LLC-PK1 cells.

Data set [10] deals with T1, Oatp2 (Solute carrier organic anion transporter family member 1A4). Nature of the data set: TP_TRANSPORTER: inhibition of Digoxin uptake (Digoxin: 0.05 uM, Indomethacin: 1000 uM) in Oatp2-expressing LLC-PK1 cells. The settings on record: pig, probe Digoxin, read-out: Activity. The arrangement: scale not given: the % may be the effect or the level left.
Data set [11] concerns the target T2, Oatp1 (Solute carrier organic anion transporter family member 1A1). Briefly: TP_TRANSPORTER: inhibition of E217betaG uptake (E217betaG: 0.1 uM, Indomethacin: 1000 uM) in Oatp1-expressing LLC-PK1 cells. The note with it: pig, probe E217betaG, read-out: Activity. On the set-up: scale not given: the % may be the effect or the level left.
For data set [12] the target is unchanged. Nature of the data set: TP_TRANSPORTER: inhibition of E217betaG uptake (E217betaG: 0.1 uM, Ketoprofen: 1000 uM) in Oatp1-expressing LLC-PK1 cells. The arrangement: scale not given: the % may be the effect or the level left. The settings on record: pig, probe E217betaG, read-out: Activity.
In data set [13] the target is T1, Oatp2 (Solute carrier organic anion transporter family member 1A4). Briefly: TP_TRANSPORTER: inhibition of Digoxin uptake (Digoxin: 0.05 uM, Ketoprofen: 1000 uM) in Oatp2-expressing LLC-PK1 cells. The note with it: pig, probe Digoxin, read-out: Activity. The arrangement: scale not given: the % may be the effect or the level left.

Regarding `COc1ccc(CCN(C)CCCC(C#N)(c2ccc(OC)c(OC)c2)C(C)C)cc1OC` (stereo not drawn), the activity at 1000 µM in data set [1] turned out to be 4.12%; in data set [2], 3.93%. `C[C@]12C[C@H](O)[C@H]3[C@@H](CCC4=CC(=O)CC[C@@]43C)[C@@H]1CC[C@@H]2C(=O)CO` [CORTICOSTERONE]: the activity at 100 µM in data set [3] was 32.9%.

On to `C[C@]12CC[C@H]3[C@@H](CCC4=CC(=O)CC[C@@]43C)[C@@H]1CC[C@@H]2C(=O)CO` [DESOXYCORTICOSTERONE], for which the activity at 100 µM worked out at 13.6% in [4] and 1.34% in data set [5]. Take `COc1ccc(Cl)cc1C(=O)NCCc1ccc(S(=O)(=O)NC(=O)NC2CCCCC2)cc1` [GLYBURIDE]: the activity at 1000 µM amounted to 1.61% in data set [6] and 2.33% in [7].

The term pKi denotes the negative decadic logarithm of the Ki, by convention in mol/L. Turning to `CC(C)Cc1ccc(C(C)C(=O)O)cc1` (stereo not drawn) [IBUPROFEN], the pKi in data set [8] is 3.90; in data set [9], 2.61. As for `COc1ccc2c(c1)c(CC(=O)O)c(C)n2C(=O)c1ccc(Cl)cc1` [INDOMETHACIN], the activity at 1000 µM in [10] worked out at 14.3%; in data set [11], 1.16%. For `CC(C(=O)O)c1cccc(C(=O)c2ccccc2)c1` (stereo not drawn) [KETOPROFEN], the activity at 1000 µM was 6.89% in [12] and 30.2% in data set [13].
